Experimental data: ChEMBL document CHEMBL4138123, “Design, synthesis and biological evaluation of novel pyrazolochalcones as potential modulators of PI3K/Akt/mTOR pathway and inducers of apoptosis in breast cancer cells” (Eur J Med Chem, 2017)

How the values were obtained:
Type in all cases: functional
U-251 = test: Cytotoxicity against human U251 cells assessed as growth inhibition after 48 hrs by sulforhodamine B assay; conditions: U-251, 48 h
Malme-3M [1] = test: Cytotoxicity against human MALME-3M cells assessed as growth inhibition after 48 hrs by sulforhodamine B assay
HT-29 = test: Cytotoxicity against human HT-29 cells assessed as cell growth at 0.01 uM after 48 hrs by sulforhodamine B assay relative to control; conditions: HT-29, 48 h, read-out: Activity
ACHN [2] = test: Cytotoxicity against human ACHN cells assessed as growth inhibition after 48 hrs by sulforhodamine B assay
SF-268 = test: Cytotoxicity against human SF268 cells assessed as cell growth at 10 uM after 48 hrs by sulforhodamine B assay relative to control; conditions: SF-268, 48 h, read-out: Activity
NCI/ADR-RES = test: Cytotoxicity against human NCI/ADR-RES cells assessed as cell growth at 0.01 uM after 48 hrs by sulforhodamine B assay relative to control; conditions: read-out: Activity
UACC-62 = test: Cytotoxicity against human UACC62 cells assessed as cell growth at 0.01 uM after 48 hrs by sulforhodamine B assay relative to control; conditions: UACC-62, 48 h, read-out: Activity
OVCAR-5 [3] = test: Cytotoxicity against human OVCAR5 cells assessed as cell growth at 1 uM after 48 hrs by sulforhodamine B assay relative to control; conditions: OVCAR-5, 48 h, read-out: Activity
HCT-116 = test: Cytotoxicity against human HCT116 cells assessed as cell growth at 0.01 uM after 48 hrs by sulforhodamine B assay relative to control; conditions: HCT-116, 48 h, read-out: Activity
ACHN [4] = test: Cytotoxicity against human ACHN cells assessed as cell growth at 10 uM after 48 hrs by sulforhodamine B assay relative to control; conditions: read-out: Activity
SK-MEL-2 = test: Cytotoxicity against human SK-MEL-2 cells assessed as growth inhibition after 48 hrs by sulforhodamine B assay; conditions: SK-MEL-2, 48 h
T47D [5] = test: Cytotoxicity against human T47D cells assessed as cell growth at 10 uM after 48 hrs by sulforhodamine B assay relative to control; conditions: read-out: Activity
786-0 = test: Cytotoxicity against human 786-0 cells assessed as cell growth at 10 uM after 48 hrs by sulforhodamine B assay relative to control; conditions: 786-0, 48 h, read-out: Activity
COLO 205 = test: Cytotoxicity against human COLO205 cells assessed as growth inhibition after 48 hrs by sulforhodamine B assay; conditions: COLO 205, 48 h
HL-60(TB) = test: Cytotoxicity against human HL-60(TB) cells assessed as cell growth at 1 uM after 48 hrs by sulforhodamine B assay relative to control; conditions: HL-60, 48 h, read-out: Activity
BT-549 [6] = test: Cytotoxicity against human BT549 cells assessed as cell growth at 10 uM after 48 hrs by sulforhodamine B assay relative to control; conditions: BT-549, 48 h, read-out: Activity
NCI-H226 [7] = test: Cytotoxicity against human NCI-H226 cells assessed as growth inhibition after 48 hrs by sulforhodamine B assay; conditions: NCI-H226, 48 h
OVCAR-5 [8] = test: Cytotoxicity against human OVCAR5 cells assessed as growth inhibition after 48 hrs by sulforhodamine B assay; conditions: OVCAR-5, 48 h
BT-549 [9] = test: Cytotoxicity against human BT549 cells assessed as cell growth at 0.1 uM after 48 hrs by sulforhodamine B assay relative to control; conditions: BT-549, 48 h, read-out: Activity
T47D [10] = test: Cytotoxicity against human T47D cells assessed as cell growth at 1 uM after 48 hrs by sulforhodamine B assay relative to control; conditions: read-out: Activity
MCF7 = test: Cytotoxicity against human MCF7 cells assessed as cell growth at 0.01 uM after 48 hrs by sulforhodamine B assay relative to control; conditions: MCF7, 48 h, read-out: Activity
K562 = test: Cytotoxicity against human K562 cells assessed as growth inhibition after 48 hrs by sulforhodamine B assay; conditions: K562, 48 h
Malme-3M [11] = test: Cytotoxicity against human MALME-3M cells assessed as cell growth at 1 uM after 48 hrs by sulforhodamine B assay relative to control; conditions: read-out: Activity
SNB-19 = test: Cytotoxicity against human SNB19 cells assessed as cell growth at 0.01 uM after 48 hrs by sulforhodamine B assay relative to control; conditions: SNB-19, 48 h, read-out: Activity
DU-145 = test: Cytotoxicity against human DU145 cells assessed as cell growth at 0.1 uM after 48 hrs by sulforhodamine B assay relative to control; conditions: DU-145, 48 h, read-out: Activity
TK-10 = test: Cytotoxicity against human TK10 cells assessed as growth inhibition after 48 hrs by sulforhodamine B assay; conditions: TK-10, 48 h
ACHN [12] = test: Cytotoxicity against human ACHN cells assessed as cell growth at 100 uM after 48 hrs by sulforhodamine B assay relative to control; conditions: read-out: Activity
RPMI-8226 = test: Cytotoxicity against human RPMI8226 cells assessed as cell growth at 0.1 uM after 48 hrs by sulforhodamine B assay relative to control; conditions: RPMI-8226, 48 h, read-out: Activity
NCI-H460 = test: Cytotoxicity against human NCI-H460 cells assessed as cell growth at 0.01 uM after 48 hrs by sulforhodamine B assay relative to control; conditions: NCI-H460, 48 h, read-out: Activity
PC-3 = test: Cytotoxicity against human PC3 cells assessed as cell growth at 10 uM after 48 hrs by sulforhodamine B assay relative to control; conditions: PC-3, 48 h, read-out: Activity
M14 = test: Cytotoxicity against human M14 cells assessed as cell growth at 0.01 uM after 48 hrs by sulforhodamine B assay relative to control; conditions: M14, 48 h, read-out: Activity
MDA-MB-468 = test: Cytotoxicity against human MDA-MB-468 cells assessed as cell growth at 1 uM after 48 hrs by sulforhodamine B assay relative to control; conditions: MDA-MB-468, 48 h, read-out: Activity
SK-MEL-28 = test: Cytotoxicity against human SK-MEL-28 cells assessed as cell growth at 0.1 uM after 48 hrs by sulforhodamine B assay relative to control; conditions: SK-MEL-28, 48 h, read-out: Activity
NCI-H226 [13] = test: Cytotoxicity against human NCI-H226 cells assessed as cell growth at 1 uM after 48 hrs by sulforhodamine B assay relative to control; conditions: NCI-H226, 48 h, read-out: Activity
BT-549 [14] = test: Cytotoxicity against human BT549 cells assessed as cell growth at 1 uM after 48 hrs by sulforhodamine B assay relative to control; conditions: BT-549, 48 h, read-out: Activity
HOP-62 = test: Cytotoxicity against human HOP62 cells assessed as cell growth at 0.01 uM after 48 hrs by sulforhodamine B assay relative to control; conditions: HOP-62, 48 h, read-out: Activity

Compound: COc1ccc(-c2cc(/C=C/C(=O)c3cc(OC)c(OC)c(OC)c3)[nH]n2)cc1OC
- GI50 (U-251): 1.24 µM
- LC50 (U-251): 5.13 µM
- TGI (U-251): 2.53 µM
- GI50 (Malme-3M [1]): 2.32 µM
- LC50 (Malme-3M [1]): 47.5 µM
- TGI (Malme-3M [1]): 6.19 µM
- growth at 0.01 µM (HT-29): 101%
- GI50 (ACHN [2]): 1.45 µM
- LC50 (ACHN [2]): 5.5 µM
- TGI (ACHN [2]): 2.82 µM
- growth at 10 µM (SF-268): -56%
- growth at 0.01 µM (NCI/ADR-RES): 97%
- growth at 0.01 µM (UACC-62): 96%
- growth at 1 µM (OVCAR-5 [3]): 81%
- growth at 0.01 µM (HCT-116): 100%
- growth at 10 µM (ACHN [4]): -95%
- GI50 (SK-MEL-2): 2.69 µM
- LC50 (concentration killing 50% of cells) (SK-MEL-2): 29.5 µM
- TGI (SK-MEL-2): 7.7 µM
- growth at 10 µM (T47D [5]): -37%
- growth at 10 µM (786-0): -94%
- GI50 (COLO 205): 1.75 µM
- LC50 (COLO 205): 7.28 µM
- TGI (COLO 205): 3.57 µM
- growth at 1 µM (HL-60(TB)): 64%
- growth at 10 µM (BT-549 [6]): -80%
- GI50 (NCI-H226 [7]): 1.93 µM
- LC50 (concentration killing 50% of cells) (NCI-H226 [7]): > 100 µM
- TGI (NCI-H226 [7]): 7.91 µM
- GI50 (OVCAR-5 [8]): 1.76 µM
- LC50 (OVCAR-5 [8]): 13.7 µM
- TGI (OVCAR-5 [8]): 4.31 µM
- growth at 0.1 µM (BT-549 [9]): 82%
- growth at 1 µM (T47D [10]): 51%
- growth at 0.01 µM (MCF7): 92%
- GI50 (K562): 0.73 µM
- LC50 (concentration killing 50% of cells) (K562): > 100 µM
- TGI (K562): 9.71 µM
- growth at 1 µM (Malme-3M [11]): 93%
- growth at 0.01 µM (SNB-19): 91%
- growth at 0.1 µM (DU-145): 103%
- GI50 (TK-10): 3.27 µM
- LC50 (TK-10): 36.9 µM
- TGI (TK-10): 11.8 µM
- growth at 100 µM (ACHN [12]): -84%
- growth at 0.1 µM (RPMI-8226): 85%
- growth at 0.01 µM (NCI-H460): 100%
- growth at 10 µM (PC-3): 1%
- growth at 0.01 µM (M14): 96%
- growth at 1 µM (MDA-MB-468): 66%
- growth at 0.1 µM (SK-MEL-28): 91%
- growth at 1 µM (NCI-H226 [13]): 73%
- growth at 1 µM (BT-549 [14]): 70%
- growth at 0.01 µM (HOP-62): 92%
